Measured values from patent US20200096524A1, “PLASMA AND LIVER LIPID SPECIES AS BIOMARKERS OF FATTY LIVER” (École Polytechnique Fédérale de Lausanne (EPFL), priority 2017, published 2020).

What was measured:
[1] = system: C57BL/6J mice fed HFHS diet (fatty liver); test: high-fat high-sucrose (HFHS) diet induced NAFLD mouse model, therapeutic NR supplementation, liver lipidomics; assay type: in vivo
Description: (A-C) C57BL/6J mice: (A) Schematic illustration of the three experimental groups used for validation of the NAFLD signatures; mice on CD (green), mice on HFHS diet from 7-25 weeks (grey), mice starting HFHS diet at 7 weeks and treated with nicotinamide riboside (NR) 9 weeks after the start of HFHS diet till the end of the study (for 9 weeks—therapeutic intervention, magenta). (B) Liver total TAG concentration (normalized to liver weight). […] (D-E) Human subjects: (D) PCA of 55 TAG species measured in human plasma from healthy, steatosis and NASH patients. (E) Plasma total TAG levels in human samples. (F-G) BXDs: (F) Correlation matrix showing the Pearson correlation of Atgl mRNA expression in four different metabolic tissues with the pro- and anti-NAFLD TAG signatures in plasma (left) and liver (right) for both diets. (G) Gene ontology biological processes (GO BP) associated with NAFLD TAG signatures. […] Red and blue cells represent the enriched pathways with the positively (scale bar: log 10 p-value) and negatively (scale bar: −log 10 p-value) correlated liver transcripts respectively. For B and E differences in mean TAG levels were compared using two-sample t tests. *p<0.05, **p<0.01, ***p<0.001.
(A) Levels of pro- and anti-NAFLD signatures in C57BL/6J mice fed on CD, high-fat high-sucrose-diet (HFHS) and HFHS diet supplemented with NR, 9 weeks after the initiation of HFHS diet (HFHS+NR). (B) Pearson correlation matrix of the pro- and anti-NAFLD signatures with NAFLD readouts including the NAS score (NAFLD activity score) and liver NAD+ levels. (C) Levels of plasma NAFLD signatures in human subjects with various degrees of NAFLD. (D) Pearson correlation matrix of the NAFLD signatures with NAFLD readouts in human subjects. (E) Pearson correlation of Atgl expression in subcutaneous WAT with pro- and anti-NAFLD plasma TAG signatures in BXD strains. For mice: n=6-9 per group. For human subjects: n=12, healthy; n=7, steatosis; n=14, early stage NASH; n=11, advanced stage NASH. Differences in mean TAG species were compared using two-sample t tests. *p<0.05, **p<0.01, ***p<0.001.
(A) Correlation diagram (corrgram) showing diet-independent association of lipid species with liver mass. […] Note that the CLs—CL(LOOPo), CL(LLPoP) and CL(OOOP)—are shown in the figure with an additional CL species because the two are isobaric and inseparable chromatographically. (F) Corrgram showing negative correlation of obesity and NAFLD traits with healthy CL species and positive correlation with unhealthy CL species.
It was then tested the relevance of these lipids as signatures of fatty liver in a different mouse model of NAFLD (induced by high-fat high-sucrose (HFHS) diet) and tested whether a NAFLD lowering therapeutic intervention, i.e. nicotinamide adenine dinucleotide (NAD^+) precursor, nicotinamide riboside (NR), impacts these lipid markers. As such, the liver lipids were compared of mice fed CD or HFHS diet for 18 weeks, or mice that were fed HFHS diet supplemented with NR 9 weeks after the start of HFHS diet when they had already developed NAFLD (a therapeutic intervention, HFHS+NR) (FIG. 11A). […] Of all the TAG species measured, only 53% were increased in HFHS cohort while 33% were decreased and 14% unchanged (data not shown). […] Importantly, the pro-NAFLD lipids correlated positively, whereas the anti-NAFLD lipids correlated negatively with clinical NAFLD readouts (FIG. 12B).
It was next tested whether this change in the profile of nine CL species is a general phenomenon in other dietary-induced models of hepatic steatosis and mitochondrial dysfunction and if the profile can be reverted by ameliorating hepato-steatosis via enhancing mitochondrial function. It has been previously shown that nicotinamide riboside (NR) treatment ameliorates high-fat high-sucrose (HFHS) diet induced fatty liver disease by boosting nicotinamide adenine dinucleotide (NAD+) levels and thereby enhancing mitochondrial function. […]

[2] = system: high-fat high-sucrose (HFHS) diet induced fatty liver disease; settings: previously shown; by boosting NAD+ levels and enhancing mitochondrial function; cited from earlier work

NC(=O)c1ccc[n+]([C@@H]2O[C@H](CO)[C@@H](O)[C@H]2O)c1 [NR, nicotinamide riboside]
liver anti-NAFLD lipids (TAGs 52:5, 52:4, 54:6) ([1]; C57BL/6J mice, HFHS+NR vs HFHS, FIG. 12A): increased the anti-NAFLD lipids only to a slight extent | liver levels of healthy CLs (CL(LLLL), MLCL(LLL)) ([1]; C57BL/6J mice, HFHS+NR vs HFHS, FIG. 13D): increased | liver levels of unhealthy CLs (MLCL(LOO), MLCL(LLO), CL(LOOPo), CL(LLPoP), CL(LOOO), CL(OOOP)) ([1]; C57BL/6J mice, HFHS+NR vs HFHS, FIG. 13E): decreased | liver total TAG concentration ([1]; C57BL/6J mice, HFHS+NR vs HFHS, NR added 9 weeks after start of HFHS diet, 18 weeks total, FIG. 11B): decreased | liver pro-NAFLD lipids (TAGs 52:2, 54:3, 56:3, 50:2) ([1]; C57BL/6J mice, HFHS+NR vs HFHS, lowered: TAGs 54:3, 56:3, 50:2, FIG. 12A): significantly lowered three of the four pro-NAFLD lipids | liver NAD+ levels ([1]; steatotic livers of HFHS mice, after NR treatment, FIG. 12B): replenished | HFHS diet induced fatty liver disease [2]: ameliorates
